The test system of series [1] is NDRG1 expression in cancer cells. The note with it: Guan et al. 2000, Bandyopadhyay et al. 2004; cited from earlier work.
The test system of series [2] is NDRG4 expression in RKO and HCT116 cell lines. As to the kind of experiment: NDRG4 re-expression by real-time RT-PCR after treatment with DAC and TSA. In kind it is cell-based, human. Particulars: combined treatment, 1 μM DAC and 300 nM TSA, cyclophilin reference gene. The procedure: Colon cancer cell lines LS174T, HCT116, HT29, RKO, CaCo2, Colo205, SW48 and SW480 were used for MSP, bisulfite sequencing and real time (reexpression) RT-PCR ([…] and 300 nM TSA).
Total RNA isolation was isolated by use of the Rneasy Mini kit (Qiagen) cDNA synthesis using the Iscript cDNA synthesis kit (Bio-Rad). Quantitative real-time reverse transcription-PCR was done using SYBR Green PCR Master Mix (Applied Biosystems, Nieuwekerk a/d IJssel, the Netherlands). Primers and PCR conditions are specified in Table 21.
Expression of the NDRG4 gene was determined by real-time reverse-transcription PCR (RT-PCR). […] Relative expression of NDRG4 after treatment with DAC and TSA was compared to untreated cell lines. Cyclophilin was used as a reference gene for expression normalisation.
A general note: Quantitative PCR measures a nucleic acid by following its amplification.

The subject of series [3] is NDRG4 mRNA in CRC cell lines HCT116 and RKO. As to the kind of experiment: NDRG4 reexpression following inhibition of DNA methyltransferases (quantitative RT-PCR). Particulars: 1 μM DAC. In kind it is cell-based, human. As to the method: CRC cell lines HT29, SW480, Caco2, Colo205, RKO, LS174T, HCT116 and SW480 were cultured in DMEM (Invitrogen) supplemented with 10% heat-inactivated fetal calf serum (Hyclone). To investigate reexpression of NDRG4 following inhibition of DNA methyltransferases, HCT116 and RKO were treated with 1 μM DAC (Sigma).
Total RNA from cell lines, normal mucosa and tumor tissue was isolated using the Rneasy Mini kit (Qiagen) following the manufacturers instructions. Possible genomic DNA contaminations were removed by DNAse treatment with the RNase-free DNAse set (Qiagen). cDNA synthesis using the Iscript cDNA synthesis kit (Bio-Rad) was performed. Quantitative real-time (RT-PCR) was performed using SYBR Green PCR master mix (Applied Biosystems, Nieuwekerk a/d IJssel, The Netherlands). Realtime RT-PCR mixes were composed of 1× iQ SYBR Green Supermix (Bio-Rad), 400 nM of the forward (SEQ ID NO: 3 5′-[…]-3′) and reverse (SEQ ID NO: 4 5′-[…]-3′) primer and cDNA corresponding to 30 ng total RNA per reaction. As standard control, primers targeted against cyclophilin A were used. Reactions were run using the iCycler (Bio-Rad) for 40 cycles at a Tm of 60° C. The comparative Ct method was used to calculate differences in mRNA expression. […] Next, the fold difference in expression was calculated as 2-^[delta][delta]Ct, with [delta][delta]Ct=[delta]Ct,sample1-[delta]Ct,control. […]

For series [4], the system named is tumor endothelial cells. The note with it: DAC and TSA together, Hellebrekers, Melotte et al. 2007; cited from earlier work.
The test system of series [5] is methylated gene promoters in plasma DNA. As to the kind of experiment: Real-time MSP on plasma DNA. Particulars: for % Specificity (all 59 controls), plasma set 1: plasma training set 1. Further details: species or system human. The procedure: 10 ml of blood was obtained per individual using EDTA Vacutainer™ tubes. Individuals with no suspicious findings, adenomas or carcinomas based on colonoscopy were enrolled in the present study. Within 4 hrs from the blood drawing, the plasma fraction was separated from the cell fraction by centrifugation at 1500 g for 15 min (4° C.). The plasma was transferred to new tubes and once again centrifuged (1500 g, 15 min, 4° C.), after which the supernatant was transferred to new tubes and stored at −80° C. until further use. Samples were shipped on dry ice.
DNA isolation from plasma samples (1.2 to 6 ml) was performed using an upscaled phenol-chloroform DNA isolation method using the 15 ml of Heavy Phase lock Gel tubes (PLG tubes) (Eppendorf, cat #0032 005.152) or alternatively the ChargeSwitch® gDNA 1 ml serum kit from Invitrogen (cat #CS11040).
Plasma samples were thawed and 1/10 volume of 10× buffer (240 mM EDTA (pH=8.0), 750 mM NaCl), 1/10 volume of 10% SDS and 5 μl of Proteinase K (20 mg/ml stock solution) per 1 ml of sample (e.g. 15 μl for 3 ml of sample) was added to each plasma sample. This mixture was incubated overnight at 48° C. at constant shaking (200 RPM).
Subsequently the PLG tube was centrifuged at 2500 RCF for 3 min, sample mixture and approximately the same volume of phenol/chloroform (Invitrogen, cat #15593049) were added to it. This solution was briefly vortexed, mixed for 10 min using a tube rocker at room temperature and centrifuged for 5 min at 2500 RCF. In case the retrieved sample volume was ≤4 ml, an equal volume of phenol/chloroform was added. The upper aqueous layer was phenol/chloroform-treated for a second time.
DNA was precipated from the upper aqueous layer by adding 5 μl glycogen, 1/10 volume of 7.5 M Ammonium Acetate and 2-2.5 volumes of cold (−20° C.) 100% ethanol. Tubes were gently inverted and incubated at −20° C. for at least 1 h, followed by a centrifugation step at 17000 RCF for 30 min (4° C.). Ethanol was carefully removed by pipetting. Pellets were washed with 2 ml freshly prepared 70% ethanol, vortexed gently and submitted to a centrifugation step at 17000 RCF for 15 min at 4° C. After careful removal of the remaining ethanol, pellets were air dried and resuspended in 45 μl of LoTE pH 8.0. The isolated DNA is stored at −80° C. until further processing.
The complete content of DNA isolated in above procedure was subjected to sodium bisulfite treatment (BT) using the EZ-96 DNA Methylation kit from Zymo Research (Cat #D5003) performed on a pipetting robot (Tecan Freedom EVOII, Roma, Liha, Mca, Te-Vacs). Briefly, 45 μl of plasma DNA sample was mixed with 5 μl of M-Dilution Buffer (provided in kit) and incubated at 37° C. for 15 min shaking at 1100 RPM. This mixture was further incubated with 100 μl of diluted CT conversion reagent (provided in kit) shaking at 70° C. for 3 hours (protected from light). Subsequently the modified DNA was desalted and desulfonated according to manufacturer's instructions and eluted in either 40 μl or 20 μl of Tris-HCl 1 mM pH8.0, depending on the applied concentration procedure. The eluted material was stored at −80° C. until further processing.
2.4 μl of the modified DNA was added to a PCR mix (total volume 12 μl) containing home-made buffer solution (final concentrations are summarized: 16.6 mM (NH4)2SO4, 67 mM Tris (pH 8.8), 6.7 mM MgCl2, 10 mM β-mercaptoethanol), dNTPs (5 mM; Amersham Biosciences cat #27-2035-02), methylation specific forward primer (6 ng), methylation specific reverse primer (18 ng), molecular beacon (0.16 μM) and Jumpstart DNA Taq polymerase (0.4 units; Sigma Cat #D9307).
A standard curve was included (9.6×10^5—9.6 copies) to determine copy numbers of unknown samples by interpolation of their Ct values to the standard curve.
DNA was isolated following the upscaled phenol-chloroform procedure; subsequently the whole DNA sample was modified as described above.

The test system of series [6] is methylated gene promoters in FFPE tissue DNA. As to the kind of experiment: Real-time MSP on colon tissue samples. On the set-up: species or system human. The procedure: Real-time MSP was applied on a 7900HT fast real-time PCR system (Applied Biosystems). 2.4 μl of the modified DNA (equivalent to 2.5 μg unconverted DNA) was added to a PCR mix (total volume 12 μl) containing buffer (16.6 mM (NH4)2SO4, 67 mM Tris (pH 8.8), 6.7 mM MgCl2, 10 mM β-mercaptoethanol), dNTPs (5 mM), forward primer (6 ng), reverse primer (18 ng), molecular beacon (0.16 μM), BSA (0.1 μg), and Jumpstart DNA Taq polymerase (0.4 units; Sigma Aldrich). Cycle program used was as follows: 5 minutes 95° C., followed by 45 cycles of 30 seconds 95° C., 30 seconds 57° C. (51° C. for APC), and 30 seconds 72° C., followed by 5 minutes 72° C. A standard curve (2×106—20 copies) was included to determine copy numbers of unknown samples by interpolation of their Ct values to the standard curve.
Marker selection in colon tissue: Based on re-expression, 224 different gene assays representing 145 gene promotors were tested on the Base5 methylation profiling platform (data not shown, see reference 1 for details). The 37 most differentially methylated gene sequences assessing 29 gene promoters were validated on retrospectively collected tumors from 65 colorectal cancer patients (all stages) and 74 distant resection ends (histopathologically normal) using real-time MSP. Several markers reliably detected CRC in those tissue samples (data not shown). The results were confirmed on an independent test set containing 39 tissue controls (non-cancerous), 34 carcinomas and 16 adenomas. Several combinations of the tested markers reliably detected CRC with high specificity and sensitivity.
The ten best performing markers GATA5, GATA4, SFRP1, SFRP2, APC, MGMT, NDRG4, OSMR, JPH3 and ADAM23 were validated with primer sets and beacon probes as specified in Table 24. In addition to the colon test genes, the independent reference gene β-Actin (ACT) was also measured. The ratios between the colon test genes and ACT were calculated, and are the test result of the assay.
Marker candidates identified by re-expression were screened using 37 real-time methylation specific PCR (real-time MSP) assays. These assays were used to assess the methylation status of 29 gene promoters in 293 formalin-fixed paraffin-embedded (FFPE) tissue samples collected from various clinics. Samples included 99 carcinomas of various stages, 16 adenomas, 63 samples from patients with cancer other than CRC (20 breast [stages I-III], 22 bladder [stages I-III], 21 lung [stages I and II]), 39 samples from patients with no evidence of cancer and 76 distant resection ends (histopathologically normal) from CRC patients. These samples were divided into training and independent test sets, and used to select the gene methylation assays best able to discriminate between cancerous and non-cancerous samples. The training set included retrospectively collected tumors from 65 colorectal cancer patients (all stages) and 74 distant resection ends. Using the 10 best performing genes the results were confirmed on an independent test set containing 59 samples from patients with cancer other than CRC, 39 non-cancerous controls and 50 cancer cases (34 carcinomas and 16 adenomas).
The individual performance of the 10 best performing tissue markers OSMR, SFRP1, GATA4, SFRP2, NDRG4, ADAM23, GATA5, MGMT, APC and JPH3 is shown in FIG. 7, when the analytical cut-off was set to give 100% specificity, except for JPH3 where a specificity of 95% was obtained (based on the 39 non-cancerous controls). In addition to the colon test genes, the independent reference gene β-Actin (ACT) was also measured. The ratios between the colon test genes and ACT were calculated, and are the test result of the assay.

[7] abbreviates: 16 adenoma tissue samples vs 39 controls.
[8] abbreviates: 34 carcinoma tissue samples vs 39 controls.

As to `Nc1ncn([C@H]2C[C@H](O)[C@@H](CO)O2)c(=O)n1` [DAC, 5-aza-2′-deoxycytidine], in series [1], the “Expression of NDRG1 after DAC treatment” value is “upregulated”. For the same molecule, in series [2], the “Relative expression of NDRG4 after treatment with DAC and TSA compared to untreated cell lines” value is reported as “reactivation of NDRG4 expression”. In addition, the “Endogenous NDRG4 mRNA levels after treatment with DAC” value in series [3] is listed as “significant increased”. Besides, in series [4], the “81 genes downregulated in tumor endothelial cells after DAC and TSA treatment” value was “reexpressed”.

`CC(/C=C/C(=O)NO)=C\[C@@H](C)C(=O)c1ccc(N(C)C)cc1` [TSA, trichostatin A]: the “Relative expression of NDRG4 after treatment with DAC and TSA compared to untreated cell lines” value in series [2] is reported as “reactivation of NDRG4 expression”. Moreover, in series [4], the “81 genes downregulated in tumor endothelial cells after DAC and TSA treatment” value is reported as “reexpressed”.

As to “OSMR (DNA TTTGGTCGGGGTAGGAGTAGC; listed as DNA, chemistry not given here)”, the “% Specificity (all 59 controls), plasma set 1” value in series [5] is reported as 100%. For the same molecule, in series [5] (plasma training set 2), the “% Sensitivity adenomas plasma set 2: increased plasma equivalent of DNA per real-time MSP assay” value came out at 2% and the “% Specificity (all 89 controls), plasma set 2: increased plasma equivalent of DNA per real-time MSP assay” value turned out to be 99%.

With “SFRP2 (DNA GGGTCGGAGTTTTTCGGAGTTGCGC; listed as DNA, chemistry not given here)”, the Sensitivity in series [6] (setting [7]) turned out to be 81%; in series [6] (setting [8]), 68%. Further, the Specificity in series [6] (setting [7]) and in series [6] (setting [8]) was 100% each time. In addition, in series [6] (50 cases (adenoma + carcinoma) vs 39 controls, tissue), the “Specificity (%)” value turned out to be 100%. For the same molecule, the “Sensitivity (%)” value was 72% in series [6] (50 cases (adenoma + carcinoma) vs 39 controls, tissue, first cut off ratio) and “(84) %” in series [6] (50 cases (adenoma + carcinoma) vs 39 controls, tissue, second cut off ratio, between ( )). For the same molecule, the “% Specificity (all 59 controls), plasma set 1” value in series [5] amounted to 97%.

Source of the values: patent US12215389B2, “Compositions for detecting epigenetic modifications” (EXACT SCIENCES CORPORATION, priority 2007, dated 2025).
